In one series the test system is Na+,K+-dependent ATPase. The class given is binding, turkey. Conditions: 150 mM Na+; for t1/2, observed half-time for disappearance of empty binding sites: 0.11-[…] K+, 37 C (Table I).
Another series deals with ox-brain Na+,K+-ATPase. Conditions: cited from earlier work.
Another series has as its system human erythrocytes. Conditions: similar conditions, estimated; cited from earlier work.

Read-outs that look alike come from different tables or passages of the source.

In the case of `C[C@@H]1O[C@@H](O[C@H]2C[C@@H](O)[C@]3(CO)[C@H]4[C@H](O)C[C@]5(C)[C@@H](C6=CC(=O)OC6)CC[C@]5(O)[C@@H]4CC[C@]3(O)C2)[C@H](O)[C@H](O)[C@H]1O` [ouabain], in the series with Na+,K+-dependent ATPase (5-37 C), the “activation energy for association (Arrhenius plot of k1)” value is 29.5 kcal/mol. Further, the “activation energy for dissociation (Arrhenius plot of k-1)” value in the series with Na+,K+-dependent ATPase (5-37 C) was determined as 24.2 kcal/mol. The “time to attain equilibrium between free and bound radioligand” value in the series with Na+,K+-dependent ATPase (20 C or higher, 0.5 mM K+, 0.85 uM [3H]ouabain (Fig. 1)) is no more than 15 min. The “k-1, dissociation rate constant” value in the series with Na+,K+-dependent ATPase (37 C, 0.5 mM K+, after 1 mM nonradioactive ouabain (Fig. 2)) was 0.16 min⁻¹; with human erythrocytes, ~ 0.001 min-1. Moreover, the “t1/2, observed half-time for disappearance of empty binding sites” value worked out at 2.2 min with Na+,K+-dependent ATPase ([3H]ouabain 1.7x10-7 M), 1.2 min in the series with Na+,K+-dependent ATPase ([3H]ouabain 3.2x10-7 M), 0.49 min in the series on Na+,K+-dependent ATPase ([3H]ouabain 8.1x10-7 M) and 5.1 min with Na+,K+-dependent ATPase ([3H]ouabain 8.1x10-8 M). In addition, the “activation energy for association (k1)” value in the series with ox-brain Na+,K+-ATPase (Na+,K+-ATPase from ox-brain cortex microsomes) was 21 to 23 kcal/mol.
`[K+]` [potassium ion]: at ox-brain Na+,K+-ATPase (read-out: D, dissociation constant for the potassium ion-ATPase complex, partially purified ox-brain ATPase, 150 mM Na+), the Kd is 2.2 mM.

(Values after publication PMC2228615 (The Journal of General Physiology, 1980).)
